Assay results published in PubChem BioAssay AID248 (DTP/NCI, 2004).
Where “and” joins values, the source holds several entries; their conditions need not be identical. Equal entries are not always repeated. Inconclusive results and toxic doses are left out.

System: L1210 leukemia ip in BDF1 mice, survival T/C
Assay: NCI In Vivo Anticancer Drug Screen. Data for tumor model L1210 Leukemia (intraperitoneal) in B6D2F1 (BDF1) mice
Settings: higher = longer survival
Method in brief: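 Each compound was tested against a transplantable tumor grown in mice. The endpoint was survival, with treated animals benchmarked against vehicle controls as a simple ratio.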

[1] = endpoint: mean survival time, dose: 50.0 mg/kg/injection, schedule: Q01DX009 (ip), vehicle: saline
[2] = endpoint: mean survival time, dose: 100.0 mg/kg/injection, schedule: Q01DX009 (ip), vehicle: saline
[3] = endpoint: mean survival time, dose: 100.0 mg/kg/injection, schedule: Q04DX003 (ip), vehicle: saline
[4] = endpoint: mean survival time, dose: 200.0 mg/kg/injection, schedule: Q01DX009 (ip), vehicle: saline
[5] = endpoint: mean survival time, dose: 100.0 mg/kg/injection, schedule: Q04DX003 (ip), vehicle: saline with Tween-80
[6] = endpoint: mean survival time, dose: 200.0 mg/kg/injection, schedule: Q04DX003 (ip), vehicle: saline with Tween-80
[7] = endpoint: mean survival time, dose: 400.0 mg/kg/injection, schedule: Q04DX003 (ip), vehicle: saline with Tween-80
[8] = endpoint: mean survival time, dose: 100.0 mg/kg/injection, schedule: Q01DX001 (ip), vehicle: carboxymethylcellulose (CMC)
[9] = endpoint: mean survival time, dose: 200.0 mg/kg/injection, schedule: Q01DX001 (ip), vehicle: carboxymethylcellulose (CMC)
[10] = endpoint: mean survival time, dose: 400.0 mg/kg/injection, schedule: Q01DX001 (ip), vehicle: carboxymethylcellulose (CMC)
[11] = endpoint: mean survival time, dose: 200.0 mg/kg/injection, schedule: Q04DX003 (ip), vehicle: saline
[12] = endpoint: mean survival time, dose: 400.0 mg/kg/injection, schedule: Q04DX003 (ip), vehicle: saline
[13] = endpoint: mean survival time, dose: 50.0 mg/kg/injection, schedule: Q01DX001 (ip), vehicle: carboxymethylcellulose (CMC)
[14] = endpoint: mean survival time, dose: 100.0 mg/kg/injection, schedule: Q01DX009 (ip), vehicle: Klucel (hydroxypropylcellulose) (HPC)
[15] = endpoint: mean survival time, dose: 200.0 mg/kg/injection, schedule: Q01DX009 (ip), vehicle: Klucel (hydroxypropylcellulose) (HPC)

CSc1ncnc2c1ncn2CO
T/C (endpoint: mean survival time, dose: 30.0 mg/kg/injection, schedule: Q01DX009 (ip), vehicle: Klucel (hydroxypropylcellulose) (HPC)): 113 % of control | T/C (endpoint: mean survival time, dose: 46.0 mg/kg/injection, schedule: Q01DX009 (ip), vehicle: carboxymethylcellulose (CMC)): 122 % of control | T/C (endpoint: mean survival time, dose: 55.0 mg/kg/injection, schedule: Q01DX009 (ip), vehicle: saline): 119 % of control | T/C (endpoint: mean survival time, dose: 60.0 mg/kg/injection, schedule: Q01DX009 (ip), vehicle: Klucel (hydroxypropylcellulose) (HPC)): 116 % of control | T/C (endpoint: mean survival time, dose: 110.0 mg/kg/injection, schedule: Q01DX001 (ip), vehicle: saline): 115 % of control | T/C (endpoint: mean survival time, dose: 120.0 mg/kg/injection, schedule: Q01DX009 (ip), vehicle: Klucel (hydroxypropylcellulose) (HPC)): 109 % of control | T/C (endpoint: mean survival time, dose: 125.0 mg/kg/injection, schedule: Q01DX009 (ip), vehicle: saline): 164 % of control | T/C (endpoint: mean survival time, dose: 165.0 mg/kg/injection, schedule: Q01DX001 (ip), vehicle: saline): 120 % of control | T/C (endpoint: mean survival time, dose: 250.0 mg/kg/injection, schedule: Q01DX001 (ip), vehicle: saline): 120 % of control

ClC1OCCOC1Cl (centres undefined)
T/C [1]: 102 % of control | T/C [2]: 91 % of control | T/C [3]: 92 % of control | T/C [4]: 100 % of control

O=C(O)Cc1ccc(Br)cc1
T/C [5]: 93 % of control | T/C [6]: 96 % of control | T/C [7]: 102 % of control

CC1(C)Cc2cccc(C(O)(CCN3CCCCC3)c3ccccc3)c2O1 (centres undefined)
T/C (endpoint: mean survival time, dose: 20.0 mg/kg/injection, schedule: Q01DX001 (ip), vehicle: Klucel (hydroxypropylcellulose) (HPC)): 96 % of control | T/C (endpoint: mean survival time, dose: 40.0 mg/kg/injection, schedule: Q01DX001 (ip), vehicle: Klucel (hydroxypropylcellulose) (HPC)): 98 % of control | T/C (endpoint: mean survival time, dose: 80.0 mg/kg/injection, schedule: Q01DX001 (ip), vehicle: Klucel (hydroxypropylcellulose) (HPC)): 92 % of control | T/C (endpoint: mean survival time, dose: 100.0 mg/kg/injection, schedule: Q01DX001 (ip), vehicle: Klucel (hydroxypropylcellulose) (HPC)): 91 % of control

CC1(C)N=C(N)N=C(N)N1c1ccc(C(F)(F)F)cc1
T/C (endpoint: mean survival time, dose: 25.0 mg/kg/injection, schedule: Q01DX001 (ip), vehicle: saline): 107 % of control | T/C (endpoint: mean survival time, dose: 50.0 mg/kg/injection, schedule: Q01DX001 (ip), vehicle: saline): 117 % of control | T/C (endpoint: mean survival time, dose: 100.0 mg/kg/injection, schedule: Q01DX001 (ip), vehicle: saline): 103 % of control and 107 % of control

On1cnc(=S)c2[nH]cnc21
T/C [8]: 98 % of control | T/C [9]: 98 % of control | T/C (endpoint: mean survival time, dose: 250.0 mg/kg/injection, schedule: Q01DX Z (ip), vehicle: carboxymethylcellulose (CMC)): 112 % of control | T/C [10]: 98 % of control | T/C (endpoint: mean survival time, dose: 500.0 mg/kg/injection, schedule: Q01DX001 (ip), vehicle: carboxymethylcellulose (CMC)): 100 % of control | T/C (endpoint: mean survival time, dose: 750.0 mg/kg/injection, schedule: Q01DX001 (ip), vehicle: carboxymethylcellulose (CMC)): 113 % of control | T/C (endpoint: mean survival time, dose: 750.0 mg/kg/injection, schedule: Q01DX Z (ip), vehicle: carboxymethylcellulose (CMC)): 156 % of control | T/C (endpoint: mean survival time, dose: 1000.0 mg/kg/injection, schedule: Q01DX001 (ip), vehicle: carboxymethylcellulose (CMC)): 117 % of control

C1=C/C2OC2CCCC/1 (centres undefined)
T/C [1]: 96 % of control | T/C [2]: 97 % of control | T/C [3]: 102 % of control | T/C [4]: 102 % of control | T/C [11]: 87 % of control | T/C [12]: 93 % of control

CC(CO)(c1c[nH]c2ccccc12)c1c[nH]c2ccccc12
T/C [13]: 102 % of control | T/C [8]: 96 % of control | T/C [9]: 96 % of control | T/C [10]: 96 % of control

COC(=O)C1=C(C)NC(=O)NC1c1ccc(OC)cc1 (centres undefined)
T/C [5]: 103 % of control | T/C [6]: 90 % of control | T/C [7]: 90 % of control

CCS(=O)(=O)/C=C/c1ccc2ccccc2n1
T/C (endpoint: mean survival time, dose: 100.0 mg/kg/injection, schedule: Q04DX002 (ip), vehicle: Klucel (hydroxypropylcellulose) (HPC)): 104 % of control | T/C (endpoint: mean survival time, dose: 200.0 mg/kg/injection, schedule: Q04DX002 (ip), vehicle: Klucel (hydroxypropylcellulose) (HPC)): 100 % of control

CN(C)/C=N/NC(=O)c1ccncc1
T/C [2]: 94 % of control | T/C [3]: 88 % of control | T/C [4]: 97 % of control | T/C [11]: 100 % of control | T/C (endpoint: mean survival time, dose: 400.0 mg/kg/injection, schedule: Q01DX009 (ip), vehicle: saline): 108 % of control | T/C [12]: 96 % of control

Cc1ccc(C(O)C(=O)O)c(C)c1 (centres undefined)
T/C (endpoint: mean survival time, dose: 100.0 mg/kg/injection, schedule: Q04DX002 (ip), vehicle: saline with Tween-80): 101 % of control | T/C (endpoint: mean survival time, dose: 200.0 mg/kg/injection, schedule: Q04DX002 (ip), vehicle: saline with Tween-80): 89 % of control

O=C(CCCl)NC(Cc1ccccc1)c1ccccc1 (centres undefined)
T/C [14]: 102 % of control | T/C (endpoint: mean survival time, dose: 100.0 mg/kg/injection, schedule: Q04DX003 (ip), vehicle: Klucel (hydroxypropylcellulose) (HPC)): 96 % of control | T/C [15]: 92 % of control | T/C (endpoint: mean survival time, dose: 200.0 mg/kg/injection, schedule: Q04DX003 (ip), vehicle: Klucel (hydroxypropylcellulose) (HPC)): 98 % of control | T/C (endpoint: mean survival time, dose: 400.0 mg/kg/injection, schedule: Q01DX009 (ip), vehicle: Klucel (hydroxypropylcellulose) (HPC)): 92 % of control | T/C (endpoint: mean survival time, dose: 400.0 mg/kg/injection, schedule: Q04DX003 (ip), vehicle: Klucel (hydroxypropylcellulose) (HPC)): 95 % of control

O=C(Oc1ccc(Cl)cc1Cl)c1ccccc1
T/C (endpoint: mean survival time, dose: 100.0 mg/kg/injection, schedule: Q01DX009 (ip), vehicle: saline with Tween-80): 110 % of control | T/C [5]: 98 % of control | T/C (endpoint: mean survival time, dose: 200.0 mg/kg/injection, schedule: Q01DX009 (ip), vehicle: saline with Tween-80): 110 % of control | T/C [6]: 96 % of control | T/C (endpoint: mean survival time, dose: 400.0 mg/kg/injection, schedule: Q01DX009 (ip), vehicle: saline with Tween-80): 113 % of control | T/C [7]: 101 % of control

O=S(=O)(O)c1cc(O)c2cc(Nc3ccccc3)ccc2c1
T/C [1]: 96 % of control | T/C [2]: 93 % of control | T/C [3]: 89 % of control | T/C [4]: 102 % of control | T/C [11]: 100 % of control

O/N=C(\c1ccccc1)C(O)c1ccccc1 (centres undefined)
T/C [13]: 113 % of control | T/C [8]: 105 % of control | T/C [9]: 105 % of control | T/C [10]: 102 % of control

O=C(C=C(C(F)(F)F)C(F)(F)F)c1ccc(C(=O)C=C(C(F)(F)F)C(F)(F)F)cc1
T/C (endpoint: mean survival time, dose: 12.5 mg/kg/injection, schedule: Q01DX009 (ip), vehicle: saline with Tween-80): 89 % of control | T/C (endpoint: mean survival time, dose: 25.0 mg/kg/injection, schedule: Q01DX009 (ip), vehicle: saline with Tween-80): 100 % of control | T/C (endpoint: mean survival time, dose: 50.0 mg/kg/injection, schedule: Q01DX009 (ip), vehicle: saline with Tween-80): 94 % of control and 101 % of control

O=C(/C=C\C(=O)c1ccc(Cl)cc1)c1ccc(Cl)cc1
T/C (endpoint: mean survival time, dose: 50.0 mg/kg/injection, schedule: Q04DX003 (ip), vehicle: carboxymethylcellulose (CMC)): 104 % of control | T/C (endpoint: mean survival time, dose: 100.0 mg/kg/injection, schedule: Q04DX003 (ip), vehicle: carboxymethylcellulose (CMC)): 112 % of control | T/C (endpoint: mean survival time, dose: 200.0 mg/kg/injection, schedule: Q04DX003 (ip), vehicle: carboxymethylcellulose (CMC)): 102 % of control

O=C1CC2(CC3(Cl)C(Cl)=C(Cl)C2(Cl)C3(Cl)Cl)C(=O)O1 (centres undefined)
T/C [13]: 100 % of control | T/C [8]: 102 % of control | T/C [9]: 102 % of control | T/C [10]: 102 % of control

COC(=O)c1cccc(N=NN(C)C)c1
T/C (endpoint: mean survival time, dose: 50.0 mg/kg/injection, schedule: Q01DX009 (ip), vehicle: Klucel (hydroxypropylcellulose) (HPC)): 105 % of control | T/C [14]: 119 % of control | T/C [15]: 108 % of control | T/C (endpoint: median survival time, dose: 23.0 mg/kg/injection, schedule: Q01DX009 (ip), vehicle: steriod suspending solution): 110 % of control | T/C (endpoint: median survival time, dose: 65.0 mg/kg/injection, schedule: Q01DX001 (ip), vehicle: steriod suspending solution): 100 % of control | T/C (endpoint: median survival time, dose: 65.0 mg/kg/injection, schedule: Q04DX003 (ip), vehicle: steriod suspending solution): 105 % of control | T/C (endpoint: median survival time, dose: 108.0 mg/kg/injection, schedule: Q01DX001 (ip), vehicle: steriod suspending solution): 100 % of control | T/C (endpoint: median survival time, dose: 108.0 mg/kg/injection, schedule: Q04DX003 (ip), vehicle: steriod suspending solution): 110 % of control | T/C (endpoint: median survival time, dose: 180.0 mg/kg/injection, schedule: Q01DX001 (ip), vehicle: steriod suspending solution): 110 % of control | T/C (endpoint: median survival time, dose: 300.0 mg/kg/injection, schedule: Q01DX001 (ip), vehicle: steriod suspending solution): 110 % of control | T/C (endpoint: median survival time, dose: 833.0 mg/kg/injection, schedule: Q01DX001 (ip), vehicle: steriod suspending solution): 100 % of control

C=C(C)C1C2OC2C(=O)C2=CCCC(C)C21C (centres undefined)
T/C (endpoint: mean survival time, dose: 25.0 mg/kg/injection, schedule: Q04DX003 (ip), vehicle: saline): 97 % of control | T/C (endpoint: mean survival time, dose: 50.0 mg/kg/injection, schedule: Q04DX003 (ip), vehicle: saline): 100 % of control | T/C [3]: 100 % of control
